In patent US11198869B2, “Angelman syndrome antisense treatment” (The Texas A&M University System, priority 2017, dated 2021):

How the values were obtained:
Type in all cases: cell-based, human
[1] = system: SNORD116 host-gene transcript (SNHG116); test: RNA-sequencing of Angelman syndrome iPSC neurons: SNHG116; conditions: 30 μM; six days post-treatment; RNA-seq
Method: (§1) RNA was isolated using Qiagen RNAeasy Plus (74136, Qiagen, Hilden, Germany). RNA concentration was determined using Qubit Fluorometric Quantitation (Thermo Fisher Scientific) and RNA quality was assessed using a 4200 Agilent TapeStation (Agilent, Santa Clara, Calif.). RNA-sequencing libraries were generated using the Illumina TruSeq Stranded Total RNA kit (20020597, Illumina, Inc., San Diego, Calif.) according to the manufacturer's protocol. 75 base-pair paired-end sequencing was performed using a NextSeq 500 (IIlumina, San Diego, Calif.) at the Texas A&M Institute for Genome Sciences and Society Genomics core. Raw sequencing reads were processed using CASAVA. The resulting FASTQ sequences were examined using FASTQC. […]
(§2) To determine whether ASO-4.4.PS.L and ASO-6.1.PO-1.O affect the levels of RNA transcripts encoded by the PWS polycistronic transcript, RNA-sequencing was performed on AS iPS cells treated with each ASO and the steady state RNA levels of SNURF, SNRPN, the SNORD116 host-gene transcript (SNHG116), the SNORD116 snoRNAs, IPW, the SNORD115 host-gene transcript (SNHG115), the SNORD115 snoRNAs, and UBE3A-AS were quantified. UBE3A steady state RNA levels were also measured. […]

UBE3A-AS = test: RNA-sequencing of Angelman syndrome iPSC neurons: UBE3A-AS; conditions: 30 μM; RNA-seq; relative to vehicle
Method: as §1, §2

UBE3A = UBE3A steady state RNA (qRT-PCR) in glutamatergic iPSC-derived neurons; conditions: 14 DIV to 20 DIV, 10-point dose curve
Method: ASO-4 and ASO-6.1 were also examined in glutamatergic iPSC-derived neurons. Glutamatergic iPSC-derived neurons were treated at 14 DIV with a 10-point ½ log dose response curve of ASO-4 and ASO-6.1 [1 nM, 3 nM, 10 nM, 30 nM, 100 nM, 300 nM, 1 μM, 3 μM, 10 μM, and 30 μM (n=3)]. At 20 DIV, the IC50 and Emax of each ASO was estimated as described above (FIG. 5E-F and Table 15).
GABAergic and glutamatergic induced pluripotent stem cell (iPSC) derived neural precursor cells (NRC-100-010-001 and GNC-301-030-001, Cellular Dynamics International, Madison Wis.) were differentiated into neurons according to the manufactures protocol. Briefly, neural precursor cells were thawed and resuspended in chemically defined medium and added to sterile-culture plates coated with poly-D-lysine and laminin. The medium was replaced 24 hr after plating and then one-half of the medium was replaced every 3-5 days afterwards. […]
The steady state RNA levels of target transcripts were measured using TaqMan quantitative reverse-transcription PCR (qRT-PCR) assays. […] Cycling conditions were 2 minutes at 50° C., 10 minutes at 95° C., and 40 cycles of 15 seconds at 95° C. and 1 minute at 60° C., with readings taken at the 60° C. step of every cycle. […] Data was retrieved and analyzed with the BIORAD CFX Maestro software (Bio-Rad Laboratories). […]

Row | Substance | Difference, SNHG116 RNA level relative to vehicle [1] | effect on UBE3A-AS RNA levels (UBE3A-AS) [fold change] | effect on UBE3A RNA levels (in words) (UBE3A)
1 | A^L*G^L*A^L*a*t*g*g*c*a*c*a*t*c*t*5mC^L*T^L*T^L*G^L (NNNATGGCACATCTNNNN; LNA gapmer, PS, 5-methylcytosine, chemistry not fully specified) [ASO-4.4.PS.L] | −0.24 | −6.1 | 
2 | C^O*U^O*G^O*G^O*t*g*t*c*a*a*c*a*a*g*C^O*C^O*A^O*A^O [ASO-6.1] |  |  | increased UBE3A RNA levels in a dose dependent manner
3 | C^O*U^O*G^O*G^O-t*g*t*c*a*a*c*a*a*g-C^O*C^O*A^O*A^o [ASO-6.1.PO-1.O] | −0.07 | −2.8 | 
4 | U^O*A^O*G^O*A^O*A^O*t*g*g*c*a*c*a*t*c*t*C^O*U^O*U^O*G^O*G^O [ASO-4] |  |  | increased UBE3A RNA levels in a dose dependent manner
